Source: patent publication US10975354B2, “Transdifferentiated cell populations and methods of use thereof” (ORGENESIS LTD., priority 2017, dated 2021)

B1: Wnt3A: WNT3A protein (R&D), Wnt-pathway agonist (protein, UniProt P56704 19-352, looked up)
Protein Wnt-3a: SYPIWWSLAVGPQYSSLGSQPILCASIPGLVPKQLRFCRNYVEIMPSVAEGIKIGIQECQHQFRGRRWNCTTVHDSLAIFGPVLDKATRESAFVHAIASAGVAFAVTRSCAEGTAAICGCSSRHQGSPGKGWKWGGCSEDIEFGGMVSREFADARENRPDARSAMNRHNNEAGRQAIASHMHLKCKCHGLSGSCEVKTCWWSQPDFRAIGDFLKDKYDSASEMVVEKHRESRGWVETLRPRYTYFKVPTERDLVYYEASPNFCEPNPETGSFGTRDRTCNVSSHGIDGCDLLCCGRGHNARAERRREKCRCVFHWCCYVSCQECTRVYDVHTCK

How the values were obtained:
DsRed+ cells = assay: Reprogramming of DsRed+ cells with Li followed by pTFs in the presence of HDACi; type: cell-based, human; settings: combination with 10 mM Li for 48 hours; 5 mM SB or 1 μM SAHA during 2+1 TD
Description: Wnt-pathway activation was induced by supplementing cell medium with 10 mM Li for 48 hours. Subsequently, cells were transdifferentiated by pancreatic transcription factors (pTFs) in the presence of 5 mM sodium butyrate (SB) (FIG. 44A) or 1 μM suberanilohydroxamic acid (SAHA) (FIG. 44B). […] Bars show ratios of transcript levels of cells treated with HDACi and pTFs compared with cells treated with pTFs alone. Transcript levels were normalized to β-actin transcript levels. N=4 independent experiments with cells from two donors. * P-value<0.05.
Representative HDACi sodium-butyrate (SB) and suberanilohydroxamic acid (SAHA) were used to induce histone hyperacetylation, which is associated with permissive chromatin structure. Methods: Primary liver cells were incubated with 10 mM lithium (Li) for 48 hours to activate Wnt signaling. Subsequently, cells were contacted with pancreatic transcription factors according to the “2+1” transdifferentiation protocol described in Example 12 in the presence of 5 mM SB (Na-Butyrate) or 1 μM SAHA.

eGFP+ cells [1] = assay: Transdifferentiation of DKK-treated eGFP+ cells in the presence of sodium butyrate; type: cell-based, human; settings: DKK 3 μg/ml for 48 hours, then pTFs with 5 mM sodium butyrate
Description: Wnt-pathway activation was induced by supplementing cell medium with 10 mM Li for 48 hours. Subsequently, cells were transdifferentiated by pancreatic transcription factors (pTFs) in the presence of 5 mM sodium butyrate (SB) (FIG. 44A) or 1 μM suberanilohydroxamic acid (SAHA) (FIG. 44B). In the GFP+ cell population, a similar effect was observed when Wnt-pathway was inhibited by supplementing serum-based medium with 3 μg/ml Dickkopf (DKK) for 48 hours followed by the transdifferentiation of cells by pTFs in the presence of 5 mM sodium butyrate (SB) (FIG. 44C). Bars show ratios of transcript levels of cells treated with HDACi and pTFs compared with cells treated with pTFs alone. Transcript levels were normalized to β-actin transcript levels. N=4 independent experiments with cells from two donors. * P-value<0.05.
Similarly, SB (HDAC inhibitor) treatment alleviated the effect of Wnt signaling inhibition of eGFP+ cells (FIG. 44C).

adult human liver cells = assay: Glucose-regulated insulin secretion (radioimmunoassay) with Ad-CMV-Pdx-1 supplemented with Wnt3A or DKK3; type: cell-based; settings: Ad-CMV-Pdx-1 and soluble factors, 5 days; 2 mM then 17.5 mM glucose
Description: Adult human liver cells were treated with Ad-CMV-Pdx-1 and soluble factors, as previously reported, supplemented with Wnt3A (50 ng/ml R&D or DKK3 (3 μg/ml R&D). After 5 days, insulin secretion was analyzed by static incubations at low followed by high glucose concentrations (2 mM and 17.5 mM glucose in KRB, respectively). Insulin secretion is measured using the human insulin radioimmunoassay kit (DPC; n≥8 from 3 different experiments) and compared to untreated cells (Cont). *p<0.01 compared to Ad-CMV-Pdx-1 alone, using Student's t-test analysis.
C-peptide and insulin secretion were measured by static incubations of primary cultures of adult liver cells 6 days after the initial exposure to the viral treatment, as described (Sapir et al, (2005) ibid; Meivar-Levy et al, (2007) ibid; Aviv et al, (2009) ibid). The glucose-regulated C-peptide secretion was measured at 2 mM and 17.5 mM glucose, which was determined by dose-dependent analyses to maximally induce insulin secretion from transdifferentiated liver cells, without having adverse effects on treated cells function (Sapir et al, (2005) ibid; Meivar-Levy et al, (2007) ibid; Aviv et al, (2009) ibid). C-peptide secretion was detected by radioimmunoassay using the human C-peptide radioimmunoassay kit (Linco Research, St. Charles, Mo.; <4% cross-reactivity to human proinsulin). […]

eGFP+ cells [2] = assay: Pancreatic hormones gene expression (real-time RT-PCR) in eGFP+ cells supplemented with DKK3; type: cell-based, human; settings: Ad-CMV-Pdx-1, 5 days, DKK3 0.5 μg/ml
Description: Pancreatic hormones gene expression was studied by Quantitative real-time RT-PCR compared to the control-treated cells.
Total RNA was isolated and cDNA was prepared and amplified, as described previously (Ber et al, (2003) J Biol Chem 278: 31950-31957; Sapir et al, (2005) ibid). Quantitative real-time RT-PCR was performed using ABI Step one plus sequence Detection system (Applied Biosystems, CA, USA), as described previously (Sapir et al, (2005) ibid; Meivar-Levy et al, (2007) ibid; Aviv et al, (2009) J Biol Chem 284: 33509-33520).

human liver cultures = assay: Glucose stimulated insulin secretion with WNT3A or DKK added during TD; type: cell-based; settings: added during TD (ectopic pTFs); measured five days later
Description: FIGS. 41A-41G show active WNT signaling controls the activation of the pancreatic lineage in liver. (FIG. 41A) Efficient reprogramming of liver to pancreas relies on active WNT signaling. WNT signaling was activated by Wnt3A, or, alternatively, blocked by DKK, concomitantly to ectopic pTFs expression (TD) in human liver cultures. Glucose stimulated Insulin secretion was measured five days later. Results are average and standard error (SE) of 3-6 repeats from 3 different donors. * P-value<0.05; ** P-value<0.005; *** P-value<0.0005. […] Efficiency of reprogramming was measured by the activation of pancreatic genes expression and relative insulin secretion induced by high glucose concentrations (17.5 mM). […]
100,000 cells/well were seeded in a 6-wells plate in a low glucose DMEM media supplemented with 2 mM L-glutamine, 10% serum, antibiotics, 10 mM Nicotinamide, 20 ng/ml EGF, and 5 nM exendin4. […] After 48 hours the cells were harvested, counted, and 100,000 cells were infected with 50MOI of Ad-MafA and re-plated as above. 72 hours later the cells were analyzed for gene expression and insulin secretion, as detailed below. […]
Glucose regulated insulin secretion (FIGS. 38D and 38F, and 41A) was measured by radioimmunoassay kit (DPC, Los-Angeles, Calif.) as described previously (Berneman-Zeitouni D et al., ibid). […]

| Molecule | reprogramming of DsRed+ cells (expression of PDX-1, Isl-1, Pax-4, Nkx6.1) (DsRed+ cells) | effect of Wnt signaling inhibition of eGFP+ cells (eGFP+ cells [1]) | Pdx-1-induced glucose-regulated insulin secretion (adult human liver cells) | transdifferentiation capacity of eGFP cells (eGFP+ cells [2]) | glucose-regulated insulin secretion (human liver cultures) |
| --- | --- | --- | --- | --- | --- |
| O=C(CCCCCCC(=O)Nc1ccccc1)NO [SAHA, suberanilohydroxamic acid] | increased reprogramming | – | – | – | – |
| CCCC(=O)[O-].[Na+] [SB, sodium-butyrate] | increased reprogramming | alleviated | – | – | – |
| DKK3: Dickkopf-related protein 3 (R&D), an inhibitor of the Wnt signaling pathway | – | – | completely abolished | totally abolished | – |
| B1 | – | – | increased | – | marked increase |
